Test: Safety and tolerability, Part A single ascending-dose phase in healthy participants
Assay type: in vivo, human
Protocol: A further two cohorts were recruited. […] Each individual participated in one treatment period only, with the exception of the food-effect cohort (cohort A3) in which there were two treatment periods separated by at least 7 days washout. Participants resided at the Clinical Research Unit (CRU) from 1 day ahead of dosing (day − 1) to day 3 and returned for a follow-up visit 5–7 days after their final dose. For all cohorts, doses were administered in the fasted state in the morning of day 1 of Treatment Period 1. In the food-effect cohort, doses were given 30 min after the start of a high-fat breakfast (973 calories total: approximately 150 protein calories, 250 carbohydrate calories, and 500–600 fat calories) on day 1 of Treatment Period 2. For cohorts A1 to A5 in Treatment Period 1, dosing occurred such that one pair (one active and one placebo) were dosed at least 24 h before the remaining participants. Continuation to dose those who remained was at the investigator’s discretion. Escalating doses were administered following satisfactory sponsor and investigator review of the safety and tolerability data (up to 48 h post-final dose) and PK data (up to 24 h post-final dose) from the lower dose levels.
Safety and tolerability assessments included adverse event (AE) monitoring, physical examinations, laboratory assessments (hematology, clinical chemistry, and urinalysis), vital signs (blood pressure, pulse rate, and body temperature) and ECG.
No formal statistical assessment was performed for the safety analysis.

[1] = Part A 50 mg (1 x 50 mg), fasted
[2] = Part A 50 mg (10 x 5 mg), fasted

## OC[C@H]1O[C@H](Sc2cncc(Br)c2)[C@H](O)[C@@H](n2cc(-c3cc(F)c(F)c(F)c3)nn2)[C@H]1O [GB1211]
Part A
  Effect of food intake or capsule formulation on TEAEs: no effect
  Participants with a TEAE possibly related to treatment, GB1211: 3
  Treatment- or dose-related trend in TEAEs: no apparent treatment- or dose-related trend
Part A 5 mg, fasted
  TEAE Back pain, no. of AEs: 1
  TEAE Back pain, participants: 1 (16.7%) n (%)
  TEAE Constipation, participants: 0 n (%)
  TEAE Cough, participants: 0 n (%)
  TEAE Decreased appetite, participants: 0 n (%)
  TEAE Diarrhea, no. of AEs: 1
  TEAE Diarrhea, participants: 1 (16.7%) n (%)
  TEAE Dry mouth, participants: 0 n (%)
  TEAE Dry skin, participants: 0 n (%)
  TEAE Dyspepsia, participants: 0 n (%)
  TEAE Gastrointestinal disorders, no. of AEs: 1
  TEAE Gastrointestinal disorders, participants: 1 (16.7%) n (%)
  TEAE General disorders and administration site conditions, no. of AEs: 1
  TEAE General disorders and administration site conditions, participants: 1 (16.7%) n (%)
  TEAE Headache, participants: 0 n (%)
  TEAE Infections and infestations, no. of AEs: 1
  TEAE Infections and infestations, participants: 1 (16.7%) n (%)
  TEAE Injury, poisoning and procedural complications, participants: 0 n (%)
  TEAE Medical device site reaction, no. of AEs: 1
  TEAE Medical device site reaction, participants: 1 (16.7%) n (%)
  TEAE Metabolism and nutrition disorders, participants: 0 n (%)
  TEAE Musculoskeletal and connective tissue disorders, no. of AEs: 1
  TEAE Musculoskeletal and connective tissue disorders, participants: 1 (16.7%) n (%)
  TEAE Nasopharyngitis, no. of AEs: 1
  TEAE Nasopharyngitis, participants: 1 (16.7%) n (%)
  TEAE Nervous system disorders, participants: 0 n (%)
  TEAE Pain, participants: 0 n (%)
  TEAE Rash, participants: 0 n (%)
  TEAE Respiratory, thoracic and mediastinal disorders, participants: 0 n (%)
  TEAE Skin and subcutaneous tissue disorders, participants: 0 n (%)
  TEAE Wound, participants: 0 n (%)
Part A 20 mg, fasted
  TEAE Back pain, participants: 0 n (%)
  TEAE Constipation, participants: 0 n (%)
  TEAE Cough, participants: 0 n (%)
  TEAE Decreased appetite, participants: 0 n (%)
  TEAE Diarrhea, participants: 0 n (%)
  TEAE Dry mouth, participants: 0 n (%)
  TEAE Dry skin, participants: 0 n (%)
  TEAE Dyspepsia, participants: 0 n (%)
  TEAE Gastrointestinal disorders, participants: 0 n (%)
  TEAE General disorders and administration site conditions, no. of AEs: 1
  TEAE General disorders and administration site conditions, participants: 1 (16.7%) n (%)
  TEAE Headache, participants: 0 n (%)
  TEAE Infections and infestations, participants: 0 n (%)
  TEAE Injury, poisoning and procedural complications, participants: 0 n (%)
  TEAE Medical device site reaction, participants: 0 n (%)
  TEAE Metabolism and nutrition disorders, participants: 0 n (%)
  TEAE Musculoskeletal and connective tissue disorders, participants: 0 n (%)
  TEAE Nasopharyngitis, participants: 0 n (%)
  TEAE Nervous system disorders, participants: 0 n (%)
  TEAE Pain, no. of AEs: 1
  TEAE Pain, participants: 1 (16.7%) n (%)
  TEAE Rash, participants: 0 n (%)
  TEAE Respiratory, thoracic and mediastinal disorders, participants: 0 n (%)
  TEAE Skin and subcutaneous tissue disorders, participants: 0 n (%)
  TEAE Wound, participants: 0 n (%)
[1]
  TEAE Back pain, participants: 0 n (%)
  TEAE Constipation, participants: 0 n (%)
  TEAE Cough, no. of AEs: 1
  TEAE Cough, participants: 1 (16.7%) n (%)
  TEAE Decreased appetite, participants: 0 n (%)
  TEAE Diarrhea, participants: 0 n (%)
  TEAE Dry mouth, participants: 0 n (%)
  TEAE Dry skin, participants: 0 n (%)
  TEAE Dyspepsia, participants: 0 n (%)
  TEAE Gastrointestinal disorders, participants: 0 n (%)
  TEAE General disorders and administration site conditions, participants: 0 n (%)
  TEAE Headache, participants: 0 n (%)
  TEAE Infections and infestations, participants: 0 n (%)
  TEAE Injury, poisoning and procedural complications, participants: 0 n (%)
  TEAE Medical device site reaction, participants: 0 n (%)
  TEAE Metabolism and nutrition disorders, participants: 0 n (%)
  TEAE Musculoskeletal and connective tissue disorders, participants: 0 n (%)
  TEAE Nasopharyngitis, participants: 0 n (%)
  TEAE Nervous system disorders, participants: 0 n (%)
  TEAE Pain, participants: 0 n (%)
  TEAE Rash, participants: 0 n (%)
  TEAE Respiratory, thoracic and mediastinal disorders, no. of AEs: 1
  TEAE Respiratory, thoracic and mediastinal disorders, participants: 1 (16.7%) n (%)
  TEAE Skin and subcutaneous tissue disorders, participants: 0 n (%)
  TEAE Wound, participants: 0 n (%)
Part A 50 mg (1 x 50 mg), fed
  TEAE Back pain, participants: 0 n (%)
  TEAE Constipation, participants: 0 n (%)
  TEAE Cough, participants: 0 n (%)
  TEAE Decreased appetite, participants: 0 n (%)
  TEAE Diarrhea, participants: 0 n (%)
  TEAE Dry mouth, participants: 0 n (%)
  TEAE Dry skin, no. of AEs: 1
  TEAE Dry skin, participants: 1 (16.7%) n (%)
  TEAE Dyspepsia, participants: 0 n (%)
  TEAE Gastrointestinal disorders, participants: 0 n (%)
  TEAE General disorders and administration site conditions, participants: 0 n (%)
  TEAE Headache, participants: 0 n (%)
  TEAE Infections and infestations, participants: 0 n (%)
  TEAE Injury, poisoning and procedural complications, participants: 0 n (%)
  TEAE Medical device site reaction, participants: 0 n (%)
  TEAE Metabolism and nutrition disorders, participants: 0 n (%)
  TEAE Musculoskeletal and connective tissue disorders, participants: 0 n (%)
  TEAE Nasopharyngitis, participants: 0 n (%)
  TEAE Nervous system disorders, participants: 0 n (%)
  TEAE Pain, participants: 0 n (%)
  TEAE Rash, participants: 0 n (%)
  TEAE Respiratory, thoracic and mediastinal disorders, participants: 0 n (%)
  TEAE Skin and subcutaneous tissue disorders, no. of AEs: 1
  TEAE Skin and subcutaneous tissue disorders, participants: 1 (16.7%) n (%)
  TEAE Wound, participants: 0 n (%)
[2]
  TEAE Back pain, no. of AEs: 1
  TEAE Back pain, participants: 1 (16.7%) n (%)
  TEAE Constipation, participants: 0 n (%)
  TEAE Cough, participants: 0 n (%)
  TEAE Decreased appetite, participants: 0 n (%)
  TEAE Diarrhea, participants: 0 n (%)
  TEAE Dry mouth, participants: 0 n (%)
  TEAE Dry skin, participants: 0 n (%)
  TEAE Dyspepsia, participants: 0 n (%)
  TEAE Gastrointestinal disorders, participants: 0 n (%)
  TEAE General disorders and administration site conditions, participants: 0 n (%)
  TEAE Headache, participants: 0 n (%)
  TEAE Infections and infestations, participants: 0 n (%)
  TEAE Injury, poisoning and procedural complications, participants: 0 n (%)
  TEAE Medical device site reaction, participants: 0 n (%)
  TEAE Metabolism and nutrition disorders, participants: 0 n (%)
  TEAE Musculoskeletal and connective tissue disorders, no. of AEs: 1
  TEAE Musculoskeletal and connective tissue disorders, participants: 1 (16.7%) n (%)
  TEAE Nasopharyngitis, participants: 0 n (%)
  TEAE Nervous system disorders, participants: 0 n (%)
  TEAE Pain, participants: 0 n (%)
  TEAE Rash, participants: 0 n (%)
  TEAE Respiratory, thoracic and mediastinal disorders, participants: 0 n (%)
  TEAE Skin and subcutaneous tissue disorders, participants: 0 n (%)
  TEAE Wound, participants: 0 n (%)
Part A 100 mg, fasted
  TEAE Back pain, participants: 0 n (%)
  TEAE Constipation, participants: 0 n (%)
  TEAE Cough, participants: 0 n (%)
  TEAE Decreased appetite, participants: 0 n (%)
  TEAE Diarrhea, participants: 0 n (%)
  TEAE Dry mouth, participants: 0 n (%)
  TEAE Dry skin, participants: 0 n (%)
  TEAE Dyspepsia, no. of AEs: 1
  TEAE Dyspepsia, participants: 1 (16.7%) n (%)
  TEAE Gastrointestinal disorders, no. of AEs: 1
  TEAE Gastrointestinal disorders, participants: 1 (16.7%) n (%)
  TEAE General disorders and administration site conditions, participants: 0 n (%)
  TEAE Headache, participants: 0 n (%)
  TEAE Infections and infestations, no. of AEs: 1
  TEAE Infections and infestations, participants: 1 (16.7%) n (%)
  TEAE Injury, poisoning and procedural complications, participants: 0 n (%)
  TEAE Medical device site reaction, participants: 0 n (%)
  TEAE Metabolism and nutrition disorders, participants: 0 n (%)
  TEAE Musculoskeletal and connective tissue disorders, participants: 0 n (%)
  TEAE Nasopharyngitis, no. of AEs: 1
  TEAE Nasopharyngitis, participants: 1 (16.7%) n (%)
  TEAE Nervous system disorders, participants: 0 n (%)
